Measurements taken from US11124510B2, “Alkyl chain modified imidazoquinoline TLR7/8 agonist compounds and uses thereof” (Dynavax Technologies Corporation, priority 2017, dated 2021).

Tests used:
TLR7 = TLR7 (Homo sapiens (Human), UniProt Q9NYK1); test: TLR7 agonist bioactivity: induction of IFNα protein in pDC-enriched PBMC cultures (ELISA, 24 h); assay type: cell-based; details: for EC50: IFNα induction, pDC-enriched human PBMC, 24 hours; for fold loss of TLR7 agonist potency compared to Compound No. 63-00 (IMDQ): less potent than IMDQ; for TLR7 (% of Compound No. 63-00 EC50 Value): EC50 expressed as percentage of EC50 of Compound No. 63-00
Procedure: Plasmacytoid dendritic cell (pDC)—enriched peripheral blood mononuclear cells (PBMCs) were prepared from the blood of a series of human donors (3-5 donors/experiment). PBMCs were isolated using Ficoll-Paque Premium® (GE Healthcare, Chicago Ill.) using methods well known to those in the art. pDCs were magnetically isolated from the total recovered PBMC population using CD304 (BDCA-4/Neuropilin-1) microbeads (Miltenyi Biotec, San Diego Calif.), according to the manufacturer's instructions. Isolated pDCs were then added back to between 1 and 2×10^8 of the corresponding donor's PBMCs for relative enrichment of this cell type. […] Culture supernatants were collected and interferon-alpha (IFNα) protein levels were measured by ELISA (MabTech, Cincinnati Ohio), according to the manufacturer's instructions.

TLR8 = TLR8 (Homo sapiens (Human), UniProt Q9NR97); test: TLR8 agonist bioactivity: induction of TNFα protein in monocyte cultures (ELISA, 24 h); assay type: cell-based; details: for EC50: TNFα induction, human monocytes, 24 hours; for fold loss of TLR8 agonist potency compared to Compound No. 63-00 (IMDQ): less potent than IMDQ; for TLR8 (% of Compound No. 63-00 EC50 Value): EC50 expressed as percentage of EC50 of Compound No. 63-00; for fold increase of TLR8 agonist potency compared to Compound No. 63-00 (IMDQ): more potent than IMDQ
Procedure: Monocytes were magnetically isolated from PBMCs, prepared as described above, following labeling with CD14 microbeads (Miltenyi Biotec, San Diego Calif.), according to the manufacturer's instructions. […] Culture supernatants were collected and tumor necrosis factor alpha (TNFα) protein levels were measured by ELISA (MabTech, Cincinnati Ohio), according to the manufacturer's instructions.

Chain of TLR7 (Q9NYK1 27-1049): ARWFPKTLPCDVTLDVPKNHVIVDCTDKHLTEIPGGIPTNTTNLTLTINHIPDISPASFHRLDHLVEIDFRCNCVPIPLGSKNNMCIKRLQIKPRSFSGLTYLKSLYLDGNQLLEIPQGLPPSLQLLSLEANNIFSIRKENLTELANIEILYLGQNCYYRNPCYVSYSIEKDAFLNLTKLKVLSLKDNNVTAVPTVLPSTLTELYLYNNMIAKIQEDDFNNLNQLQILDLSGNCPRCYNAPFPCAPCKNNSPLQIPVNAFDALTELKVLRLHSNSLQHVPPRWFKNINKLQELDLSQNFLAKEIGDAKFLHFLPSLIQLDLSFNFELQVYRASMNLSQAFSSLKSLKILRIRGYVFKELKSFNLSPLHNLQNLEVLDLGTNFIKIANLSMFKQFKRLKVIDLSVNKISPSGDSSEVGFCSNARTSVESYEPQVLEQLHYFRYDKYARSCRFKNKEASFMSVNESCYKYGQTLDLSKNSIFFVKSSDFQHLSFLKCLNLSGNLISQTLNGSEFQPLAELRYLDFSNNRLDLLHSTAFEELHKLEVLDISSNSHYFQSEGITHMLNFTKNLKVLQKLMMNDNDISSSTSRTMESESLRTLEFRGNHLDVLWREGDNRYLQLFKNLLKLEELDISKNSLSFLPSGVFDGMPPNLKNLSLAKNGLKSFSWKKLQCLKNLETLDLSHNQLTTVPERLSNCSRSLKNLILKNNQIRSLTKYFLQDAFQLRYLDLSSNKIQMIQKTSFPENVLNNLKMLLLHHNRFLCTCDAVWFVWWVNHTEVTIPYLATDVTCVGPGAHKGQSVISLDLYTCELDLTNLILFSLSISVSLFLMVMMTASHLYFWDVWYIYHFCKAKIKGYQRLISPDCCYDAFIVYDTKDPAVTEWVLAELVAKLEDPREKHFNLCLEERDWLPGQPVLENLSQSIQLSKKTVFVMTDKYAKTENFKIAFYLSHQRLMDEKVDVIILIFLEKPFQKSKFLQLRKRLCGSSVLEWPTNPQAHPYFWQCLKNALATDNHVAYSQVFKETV
Chain of TLR8 (Q9NR97 27-1041): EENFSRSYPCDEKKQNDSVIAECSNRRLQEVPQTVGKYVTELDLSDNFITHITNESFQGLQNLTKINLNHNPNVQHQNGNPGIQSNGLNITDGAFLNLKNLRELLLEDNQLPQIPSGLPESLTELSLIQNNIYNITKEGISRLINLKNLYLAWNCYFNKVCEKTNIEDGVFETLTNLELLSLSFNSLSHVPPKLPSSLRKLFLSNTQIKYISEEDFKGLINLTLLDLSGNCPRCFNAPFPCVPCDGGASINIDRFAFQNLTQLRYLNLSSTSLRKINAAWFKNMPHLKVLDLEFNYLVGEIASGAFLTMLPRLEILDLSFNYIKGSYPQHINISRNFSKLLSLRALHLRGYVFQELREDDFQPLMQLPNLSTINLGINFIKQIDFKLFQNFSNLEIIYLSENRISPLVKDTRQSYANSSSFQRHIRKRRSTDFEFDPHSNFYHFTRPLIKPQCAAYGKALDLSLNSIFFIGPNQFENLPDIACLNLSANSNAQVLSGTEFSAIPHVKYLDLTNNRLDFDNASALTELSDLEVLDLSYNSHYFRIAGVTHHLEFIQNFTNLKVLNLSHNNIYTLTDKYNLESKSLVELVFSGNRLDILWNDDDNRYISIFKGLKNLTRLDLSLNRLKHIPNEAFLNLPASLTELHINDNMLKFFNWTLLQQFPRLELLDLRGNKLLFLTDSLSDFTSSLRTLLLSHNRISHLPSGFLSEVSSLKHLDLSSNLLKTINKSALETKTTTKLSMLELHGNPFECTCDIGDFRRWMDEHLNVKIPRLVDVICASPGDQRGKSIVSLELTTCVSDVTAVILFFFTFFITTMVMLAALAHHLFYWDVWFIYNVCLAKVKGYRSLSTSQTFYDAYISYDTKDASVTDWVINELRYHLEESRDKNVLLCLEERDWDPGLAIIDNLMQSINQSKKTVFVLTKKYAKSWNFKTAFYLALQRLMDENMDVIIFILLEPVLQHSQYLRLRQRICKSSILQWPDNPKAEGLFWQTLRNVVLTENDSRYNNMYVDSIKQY

Row | SMILES | EC50 (TLR7) | EC50 (TLR8) | fold loss of TLR8 agonist potency compared to Compound No. 63-00 (IMDQ) (TLR8) | fold loss of TLR7 agonist potency compared to Compound No. 63-00 (IMDQ) (TLR7) | TLR7 (% of Compound No. 63-00 EC50 Value) (TLR7) | TLR8 (% of Compound No. 63-00 EC50 Value) (TLR8) | fold increase of TLR8 agonist potency compared to Compound No. 63-00 (IMDQ) (TLR8)
1 | CCCCc1nc2c(N)nc3ccccc3c2n1Cc1ccc(CNCCC2CCC2)cc1 [Compound No. 63-35, 2-butyl-1-(4-(((2-cyclobutylethyl)amino)methyl)benzyl)-1H-imidazo[4,5-c]quinolin-4-amine] | 12 nM | 70 nM |  |  | 715% | 53% | 
2 | CCCCc1nc2c(N)nc3ccccc3c2n1Cc1ccc(CNCCC2CCCC2)cc1 [Compound No. 63-36, 2-butyl-1-(4-(((2-cyclopentylethyl)amino)methyl)benzyl)-1H-imidazo[4,5-c]quinolin-4-amine] | 11 nM | 117 nM |  | 10.9 fold | 1,085% | 72% | 
3 | CCCCc1nc2c(N)nc3ccccc3c2n1Cc1ccc(CNCC2CC2)cc1 [Compound No. 63-38, 2-butyl-1-(4-(((cyclopropylmethyl)amino)methyl)benzyl)-1H-imidazo[4,5-c]quinolin-4-amine] |  |  |  |  | 345% | 37% | 
4 | CCCCc1nc2c(N)nc3ccccc3c2n1Cc1ccc(CNCC2CC2C)cc1 (centres unmarked) [Compound No. 63-39, 2-butyl-1-(4-((((2-methylcyclopropyl)methyl)amino)methyl)benzyl)-1H-imidazo[4,5-c]quinoline-4-amine] |  |  |  |  | 220% | 48% | 
5 | CCCCc1nc2c(N)nc3ccccc3c2n1Cc1ccc(CNCC2CC2(C)C)cc1 (centres unmarked) [Compound No. 63-40, 2-butyl-1-(4-((((2,2-dimethylcyclopropyl)methyl)amino)methyl)benzyl)-1H-imidazo[4,5-c]quinolin-4-amine] |  |  |  |  | 215% | 51% | 
6 | CCCCc1nc2c(N)nc3ccccc3c2n1Cc1ccc(CNCC(C)(C)C2CC2)cc1 [Compound No. 63-41, 2-butyl-1-(4-(((2-cyclopropyl-2-methylpropyl)amino)methyl)benzyl)-1H-imidazo[4,5-c]quinoline-4-amine] |  |  |  |  | 360% | 43% | 
7 | CCCCc1nc2c(N)nc3ccccc3c2n1Cc1ccc(CNCCC2(C)CC2)cc1 [Compound No. 63-42, 2-butyl-1-(4-(((2-(1-methylcyclopropyl)ethyl)amino)methyl)benzyl)-1H-imidazo[4,5-c]quinolin-4-amine] |  |  |  |  | 445% | 85% | slightly improved to slightly inferior
8 | CCCCc1nc2c(N)nc3ccccc3c2n1Cc1ccc(CNCCCC2CC2)cc1 [Compound No. 63-43, 2-butyl-1-(4-(((3-cyclopropylpropyl)amino)methyl)benzyl)-1H-imidazo[4,5-c]quinolin-4-amine] |  |  |  |  | 440% | 77% | 
9 | CCCCc1nc2c(N)nc3ccccc3c2n1Cc1ccc(CNCC2CCC2)cc1 [Compound No. 63-44, 2-butyl-1-(4-(((cyclobutylmethyl)amino)methyl)benzyl)-1H-imidazo[4,5-c]quinolin-4-amine] |  |  |  | 1.2 fold | 120% | 17% | 5.9 fold
10 | CCCCc1nc2c(N)nc3ccccc3c2n1Cc1ccc(CNCC2(C)CCC2)cc1 [Compound No. 63-45, 2-butyl-1-(4-((((1-methylcyclobutyl)methyl)amino)methyl)benzyl)-1H-imidazo[4,5-c]quinoline-4-amine] |  |  |  | 1.9 fold | 190% | 13% | 7.7 fold
11 | CCCCc1nc2c(N)nc3ccccc3c2n1Cc1ccc(CNCC2CC(C)C2)cc1 (centres unmarked) [Compound No. 63-46, 2-butyl-1-(4-((((3-methylcyclobutyl)methyl)amino)methyl)benzyl)-1H-imidazo[4,5-c]quinolin-4-amine] |  |  |  |  | 400% | 39% | 
12 | CCCCc1nc2c(N)nc3ccccc3c2n1Cc1ccc(CNCC(C)(C)C2CCC2)cc1 [Compound No. 63-47, 2-butyl-1-(4-(((2-cyclobutyl-2-methylpropyl)amino)methyl)benzyl)-1H-imidazo[4,5-c]quinolin-4-amine] |  |  |  | 9.0 fold | 900% | 108% | slightly improved to slightly inferior

Second part, led by results:

Row | EC50 (TLR7) | EC50 (TLR8) | fold loss of TLR8 agonist potency compared to Compound No. 63-00 (IMDQ) (TLR8) | SMILES | fold loss of TLR7 agonist potency compared to Compound No. 63-00 (IMDQ) (TLR7) | TLR7 (% of Compound No. 63-00 EC50 Value) (TLR7) | TLR8 (% of Compound No. 63-00 EC50 Value) (TLR8) | fold increase of TLR8 agonist potency compared to Compound No. 63-00 (IMDQ) (TLR8)
13 | 3 nM | 2170 nM | 10-26 fold | CCCCCCCCC(=O)NCc1ccc(Cn2c(CCCC)nc3c(N)nc4ccccc4c32)cc1 [Compound No. 63-05, N-(4-((4-amino-2-butyl-1H-imidazo[4,5-c]quinolin-1-yl)methyl)benzyl)nonanamide] |  |  |  | 
14 | 2 nM | 2750 nM | 10-26 fold | CCCCCCCCCC(=O)NCc1ccc(Cn2c(CCCC)nc3c(N)nc4ccccc4c32)cc1 [Compound No. 63-06, N-(4-((4-amino-2-butyl-1H-imidazo[4,5-c]quinolin-1-yl)methyl)benzyl)decanamide] |  |  |  | 
15 | 1 nM | 2640 nM | 10-26 fold | CCCCCCCCCCC(=O)NCc1ccc(Cn2c(CCCC)nc3c(N)nc4ccccc4c32)cc1 [Compound No. 63-07, N-(4-((4-amino-2-butyl-1H-imidazo[4,5-c]quinolin-1-yl)methyl)benzyl)undecanamide] |  |  |  | 
16 | 3 nM | 1270 nM | did not lose as much agonist activity | CCCCCCCCCCCC(=O)NCc1ccc(Cn2c(CCCC)nc3c(N)nc4ccccc4c32)cc1 [Compound No. 63-08, N-(4-((4-amino-2-butyl-1H-imidazo[4,5-c]quinolin-1-yl)methyl)benzyl)dodecanamide] |  |  |  | 
17 | 2 nM | 970 nM | did not lose as much agonist activity | CCCCCCCCCCCCC(=O)NCc1ccc(Cn2c(CCCC)nc3c(N)nc4ccccc4c32)cc1 [Compound No. 63-09, N-(4-((4-amino-2-butyl-1H-imidazo[4,5-c]quinolin-1-yl)methyl)benzyl)tridecanamide] |  |  |  | 
18 | 24 nM | 752 nM |  | CCCCCCCNCc1ccc(Cn2c(CCCC)nc3c(N)nc4ccccc4c32)cc1 [Compound No. 63-19, 2-butyl-1-(4-((heptylamino)methyl)benzyl)-1H-imidazo[4,5-c]quinolin-4-amine] |  |  |  | 
19 | 51 nM | 1220 nM |  | CCCCCCCCNCc1ccc(Cn2c(CCCC)nc3c(N)nc4ccccc4c32)cc1 [Compound No. 63-20, 2-butyl-1-(4-((octylamino)methyl)benzyl)-1H-imidazo[4,5-c]quinolin-4-amine] |  |  |  | 
20 | 68 nM | 947 nM |  | CCCCCCCCCNCc1ccc(Cn2c(CCCC)nc3c(N)nc4ccccc4c32)cc1 [Compound No. 63-21, 2-butyl-1-(4-((nonylamino)methyl)benzyl)-1H-imidazo[4,5-c]quinolin-4-amine] |  |  |  | 
21 | 62 nM | 821 nM |  | CCCCCCCCCCNCc1ccc(Cn2c(CCCC)nc3c(N)nc4ccccc4c32)cc1 [Compound No. 63-22, 2-butyl-1-(4-((decylamino)methyl)benzyl)-1H-imidazo[4,5-c]quinolin-4-amine] |  |  |  | 
22 | 32 nM | 1040 nM |  | CCCCCCCCCCCCNCc1ccc(Cn2c(CCCC)nc3c(N)nc4ccccc4c32)cc1 [Compound No. 63-24, 2-butyl-1-(4-((dodecylamino)methyl)benzyl)-1H-imidazo[4,5-c]quinolin-4-amine] |  |  |  | 
23 | 19 nM | 2770 nM | over 12 fold | CCCCCCCCCCCCCCCCCCNCc1ccc(Cn2c(CCCC)nc3c(N)nc4ccccc4c32)cc1 [Compound No. 63-29, 2-butyl-1-(4-((octadecylamino)methyl)benzyl)-1H-imidazo[4,5-c]quinolin-4-amine] | 19 fold |  |  | 
24 | 3 nM | 2150 nM | 10-26 fold | CCCCCCCCCCCCCCCC(=O)NCc1ccc(Cn2c(CCCC)nc3c(N)nc4ccccc4c32)cc1 [Compound No. 63-31, N-(4-((4-amino-2-butyl-1H-imidazo[4,5-c]quinolin-1-yl)methyl)benzyl)palmitamide, reference compound] |  |  |  | 
25 | 157 nM | 3100 nM |  | CCCCCCCCCCCCCCCCNCc1ccc(Cn2c(CCCC)nc3c(N)nc4ccccc4c32)cc1 [Compound No. 63-32, 2-butyl-1-(4-((hexadecylamino)methyl)benzyl)-1H-imidazo[4,5-c]quinolin-4-amine, reference compound] |  |  |  | 
26 | 8 nM | 1490 nM | 7 fold | CCCCc1nc2c(N)nc3ccccc3c2n1Cc1ccc(CNC(=O)CC2CC2)cc1 [Compound No. 63-34, N-(4-((4-amino-2-butyl-1H-imidazo[4,5-c]quinolin-1-yl)methyl)benzyl)-2-cyclopropylacetamide] | 8 fold |  |  | 
